Laboratory results as given in PubChem BioAssay AID1259407 (Chemical Carcinogenesis Research Information System (CCRIS), 2018).
Calls of active or inactive are those of the source. How the calls were made is not given here.

System: CCRIS mutagenicity, Ames/micronucleus/aberration tests
Experiment: CCRIS mutagenicity studies
[1] = Test System: AMES SALMONELLA TYPHIMURIUM, Strain/Indicator: TA98, Metabolic Activation: NONE, Method: PREINCUBATION
[2] = Test System: AMES SALMONELLA TYPHIMURIUM, Strain/Indicator: TA100, Metabolic Activation: NONE, Method: PREINCUBATION

In the case of `CCCCCN(CCCCC)CCCCC`, the mutagenic call (Test System: AMES SALMONELLA TYPHIMURIUM, Strain/Indicator: TA98, Metabolic Activation: HAMSTER, LIVER, S-9, AROCLOR 1254 (10%), Method: PREINCUBATION) is reported as “inactive; negative”, the mutagenic call [1] is reported as “inactive; negative” and the mutagenic call (Test System: AMES SALMONELLA TYPHIMURIUM, Strain/Indicator: TA98, Metabolic Activation: RAT, LIVER, S-9, AROCLOR 1254 (10%), Method: PREINCUBATION) is reported as “inactive; negative”. The mutagenic call (Test System: AMES SALMONELLA TYPHIMURIUM, Strain/Indicator: TA100, Metabolic Activation: HAMSTER, LIVER, S-9, AROCLOR 1254 (10%), Method: PREINCUBATION) was “inactive; negative”, the mutagenic call [2] was “inactive; negative” and the mutagenic call (Test System: AMES SALMONELLA TYPHIMURIUM, Strain/Indicator: TA100, Metabolic Activation: RAT, LIVER, S-9, AROCLOR 1254 (10%), Method: PREINCUBATION) was “inactive; negative”. For the same compound, the mutagenic call (Test System: AMES SALMONELLA TYPHIMURIUM, Strain/Indicator: TA1535, Metabolic Activation: HAMSTER, LIVER, S-9, AROCLOR 1254 (10%), Method: PREINCUBATION) was “inactive; negative”, the mutagenic call (Test System: AMES SALMONELLA TYPHIMURIUM, Strain/Indicator: TA1535, Metabolic Activation: NONE, Method: PREINCUBATION) was “inactive; negative” and the mutagenic call (Test System: AMES SALMONELLA TYPHIMURIUM, Strain/Indicator: TA1535, Metabolic Activation: RAT, LIVER, S-9, AROCLOR 1254 (10%), Method: PREINCUBATION) was “inactive; negative”. For the same compound, the mutagenic call (Test System: AMES SALMONELLA TYPHIMURIUM, Strain/Indicator: TA1537, Metabolic Activation: HAMSTER, LIVER, S-9, AROCLOR 1254 (10%), Method: PREINCUBATION) was “inactive; negative”, the mutagenic call (Test System: AMES SALMONELLA TYPHIMURIUM, Strain/Indicator: TA1537, Metabolic Activation: NONE, Method: PREINCUBATION) was “inactive; negative” and the mutagenic call (Test System: AMES SALMONELLA TYPHIMURIUM, Strain/Indicator: TA1537, Metabolic Activation: RAT, LIVER, S-9, AROCLOR 1254 (10%), Method: PREINCUBATION) was “inactive; negative”.
`COc1ccc(N)c(OC)c1` was tested, and the mutagenic call (Test System: AMES SALMONELLA TYPHIMURIUM, Strain/Indicator: TA98, Metabolic Activation: HAMSTER, LIVER, S-9, AROCLOR 1254 (30%), Method: PREINCUBATION) was “active; positive”, the mutagenic call (Test System: AMES SALMONELLA TYPHIMURIUM, Strain/Indicator: TA98, Metabolic Activation: HAMSTER, LIVER, S-9, Method: STANDARD PLATE) was “inactive; negative” and the mutagenic call (Test System: AMES SALMONELLA TYPHIMURIUM, Strain/Indicator: TA98, Metabolic Activation: MOUSE, LIVER, S-9, AROCLOR 1254, Method: STANDARD PLATE) was “inactive; negative”. For the same compound, the mutagenic call (Test System: AMES SALMONELLA TYPHIMURIUM, Strain/Indicator: TA98, Metabolic Activation: MOUSE, LIVER, S-9, Method: STANDARD PLATE) was “inactive; negative”, the mutagenic call [1] was “inactive; negative” and the mutagenic call (Test System: AMES SALMONELLA TYPHIMURIUM, Strain/Indicator: TA98, Metabolic Activation: NONE, Method: STANDARD PLATE) was “inactive; negative”. The mutagenic call (Test System: AMES SALMONELLA TYPHIMURIUM, Strain/Indicator: TA98, Metabolic Activation: RAT, LIVER, S-9, AROCLOR 1254 (30%), Method: PREINCUBATION) was “active; positive”, the mutagenic call (Test System: AMES SALMONELLA TYPHIMURIUM, Strain/Indicator: TA98, Metabolic Activation: RAT, LIVER, S-9, Method: STANDARD PLATE) was “inactive; negative” and the mutagenic call (Test System: AMES SALMONELLA TYPHIMURIUM, Strain/Indicator: TA100, Metabolic Activation: HAMSTER, LIVER, S-9, AROCLOR 1254 (30%), Method: PREINCUBATION) was “active; positive”. The mutagenic call (Test System: AMES SALMONELLA TYPHIMURIUM, Strain/Indicator: TA100, Metabolic Activation: HAMSTER, LIVER, S-9, AROCLOR 1254, Method: STANDARD PLATE) was “inactive; negative”, the mutagenic call (Test System: AMES SALMONELLA TYPHIMURIUM, Strain/Indicator: TA100, Metabolic Activation: HAMSTER, LIVER, S-9, Method: STANDARD PLATE) was “inactive; negative” and the mutagenic call (Test System: AMES SALMONELLA TYPHIMURIUM, Strain/Indicator: TA100, Metabolic Activation: MOUSE, LIVER, S-9, AROCLOR 1254, Method: STANDARD PLATE) was “inactive; negative”. The mutagenic call (Test System: AMES SALMONELLA TYPHIMURIUM, Strain/Indicator: TA100, Metabolic Activation: MOUSE, LIVER, S-9, Method: STANDARD PLATE) was “inactive; negative”, the mutagenic call [2] was “inactive; negative” and the mutagenic call (Test System: AMES SALMONELLA TYPHIMURIUM, Strain/Indicator: TA100, Metabolic Activation: NONE, Method: STANDARD PLATE) was “inactive; negative”. For the same compound, the mutagenic call (Test System: AMES SALMONELLA TYPHIMURIUM, Strain/Indicator: TA100, Metabolic Activation: RAT, LIVER, S-9, AROCLOR 1254 (30%), Method: PREINCUBATION) was “inactive; negative”, the mutagenic call (Test System: AMES SALMONELLA TYPHIMURIUM, Strain/Indicator: TA100, Metabolic Activation: RAT, LIVER, S-9, AROCLOR 1254, Method: STANDARD PLATE) was “inactive; negative” and the mutagenic call (Test System: AMES SALMONELLA TYPHIMURIUM, Strain/Indicator: TA100, Metabolic Activation: RAT, LIVER, S-9, Method: STANDARD PLATE) was “inactive; negative”. The mutagenic call (Test System: AMES SALMONELLA TYPHIMURIUM, Strain/Indicator: TA1535, Metabolic Activation: HAMSTER, LIVER, S-9, AROCLOR 1254, Method: STANDARD PLATE) was “inactive; negative”, the mutagenic call (Test System: AMES SALMONELLA TYPHIMURIUM, Strain/Indicator: TA1535, Metabolic Activation: HAMSTER, LIVER, S-9, Method: STANDARD PLATE) was “inactive; negative” and the mutagenic call (Test System: AMES SALMONELLA TYPHIMURIUM, Strain/Indicator: TA1535, Metabolic Activation: MOUSE, LIVER, S-9, AROCLOR 1254, Method: STANDARD PLATE) was “inactive; negative”. For the same compound, the mutagenic call (Test System: AMES SALMONELLA TYPHIMURIUM, Strain/Indicator: TA1535, Metabolic Activation: MOUSE, LIVER, S-9, Method: STANDARD PLATE) was “inactive; negative”, the mutagenic call (Test System: AMES SALMONELLA TYPHIMURIUM, Strain/Indicator: TA1535, Metabolic Activation: NONE, Method: STANDARD PLATE) was “inactive; negative” and the mutagenic call (Test System: AMES SALMONELLA TYPHIMURIUM, Strain/Indicator: TA1535, Metabolic Activation: RAT, LIVER, S-9, AROCLOR 1254, Method: STANDARD PLATE) was “inactive; negative”. The mutagenic call (Test System: AMES SALMONELLA TYPHIMURIUM, Strain/Indicator: TA1535, Metabolic Activation: RAT, LIVER, S-9, Method: STANDARD PLATE) was “inactive; negative”, the mutagenic call (Test System: AMES SALMONELLA TYPHIMURIUM, Strain/Indicator: TA1537, Metabolic Activation: HAMSTER, LIVER, S-9, Method: STANDARD PLATE) was “inactive; negative” and the mutagenic call (Test System: AMES SALMONELLA TYPHIMURIUM, Strain/Indicator: TA1537, Metabolic Activation: MOUSE, LIVER, S-9, AROCLOR 1254, Method: STANDARD PLATE) was “inactive; negative”. For the same compound, the mutagenic call (Test System: AMES SALMONELLA TYPHIMURIUM, Strain/Indicator: TA1537, Metabolic Activation: MOUSE, LIVER, S-9, Method: STANDARD PLATE) was “inactive; negative”, the mutagenic call (Test System: AMES SALMONELLA TYPHIMURIUM, Strain/Indicator: TA1537, Metabolic Activation: NONE, Method: STANDARD PLATE) was “inactive; negative” and the mutagenic call (Test System: AMES SALMONELLA TYPHIMURIUM, Strain/Indicator: TA1537, Metabolic Activation: RAT, LIVER, S-9, AROCLOR 1254, Method: STANDARD PLATE) was “inactive; negative”. For the same compound, the mutagenic call (Test System: AMES SALMONELLA TYPHIMURIUM, Strain/Indicator: TA1537, Metabolic Activation: RAT, LIVER, S-9, Method: STANDARD PLATE) was “inactive; negative”, the mutagenic call (Test System: AMES SALMONELLA TYPHIMURIUM, Strain/Indicator: TA1538, Metabolic Activation: MOUSE, LIVER, S-9, Method: STANDARD PLATE) was “inactive; negative” and the mutagenic call (Test System: AMES SALMONELLA TYPHIMURIUM, Strain/Indicator: TA1538, Metabolic Activation: NONE, Method: STANDARD PLATE) was “inactive; negative”. For the same compound, the mutagenic call (Test System: AMES SALMONELLA TYPHIMURIUM, Strain/Indicator: TA1538, Metabolic Activation: RAT, LIVER, S-9, Method: STANDARD PLATE) was “inactive; negative”, the mutagenic call (Test System: E. COLI, Strain/Indicator: WP2 UVRA, Metabolic Activation: HAMSTER, LIVER, S-9, AROCLOR 1254, Method: STANDARD PLATE) was “inactive; negative” and the mutagenic call (Test System: E. COLI, Strain/Indicator: WP2 UVRA, Metabolic Activation: HAMSTER, LIVER, S-9, Method: STANDARD PLATE) was “inactive; negative”. The mutagenic call (Test System: E. COLI, Strain/Indicator: WP2 UVRA, Metabolic Activation: MOUSE, LIVER, S-9, AROCLOR 1254, Method: STANDARD PLATE) was “inactive; negative”, the mutagenic call (Test System: E. COLI, Strain/Indicator: WP2 UVRA, Metabolic Activation: MOUSE, LIVER, S-9, Method: STANDARD PLATE) was “inactive; negative” and the mutagenic call (Test System: E. COLI, Strain/Indicator: WP2 UVRA, Metabolic Activation: NONE, Method: STANDARD PLATE) was “inactive; negative”. For the same compound, the mutagenic call (Test System: E. COLI, Strain/Indicator: WP2 UVRA, Metabolic Activation: RAT, LIVER, S-9, AROCLOR 1254, Method: STANDARD PLATE) was “inactive; negative” and the mutagenic call (Test System: E. COLI, Strain/Indicator: WP2 UVRA, Metabolic Activation: RAT, LIVER, S-9, Method: STANDARD PLATE) was “inactive; negative”.
